Data: patent US12503455B2, “Nucleic acid-binding photoprobes and uses thereof” (Arrakis Therapeutics, Inc., priority 2017, dated 2025)

Experiments:
Aptamer 21 = assay: Competition between Aptamer 21 photoprobes and RNA-binding ligands (RT pausing)
Description: Aptamer 21 was either incubated with probe alone (ARK-581) or probe plus a 10-fold excess of RNA-binding ligand.
Both ARK-852 and ARK-139 inhibit the photocrosslinking of probes to Aptamer 21.
Folded RNA (1 μM) was incubated with the photoaffinity probe (10 μM) in total 25 μL of buffer (20 mM TrisHCl pH 8, 100 mM KCl, 3 mM MgCl2) with 2.5% DMSO for 30 min at 37° C. to allow binding to come to equilibrium. The sample was then irradiated with long wave UV light (˜365 nm) for 30 min in a UV crosslinker (Fisher Scientific).
A 3.75 μL aliquot of 10 μM reverse transcription primer was added to the cross-linked RNA sample, which was then incubated for 5 min at 65° C. and then cooled on ice. The sample was then diluted to a final volume of 60 μL and final buffer concentration of 1× Protoscript-II buffer (New England Biolabs), 0.5 mM dNTPs, 10 mM DTT, 0.4 U/μL RNase Inhibitor (New England Biolabs), and 10 U/μL Protoscript-II (New England Biolabs). The reaction was incubated at 45° C. for 2 h, 65° C. for 20 min, and then 4° C.
The RNA was hydrolyzed by the addition of 4.8 μL of 2.5 M NaOH and heating at 95° C. for 5 min. The reaction was quenched by the addition of 0.9 μL of acetic acid. The cDNA was precipitated by the addition of 6.6 μL of 3 M sodium acetate pH 5 and 181 μL ethanol, cooling to −80° C. for 1 h, and then centrifuging at 20,500×g at 4° C. for 30 min. The cDNA pellet was washed twice with 500 μL of 70% ethanol and then air dried for 5 min.
The cDNA pellet was resuspended in 12 μL of 1×TBE-urea sample loading buffer (Bio-Rad) and heated to 95° C. for 5 min. The sample was then run on a pre-cast 8.6×6.7 cm TBE-urea 10% PAGE gel (Bio-Rad) at 120 V until the lower bromophenol blue dye reached the bottom of the gel. The gel was stained with 1×SYBR-gold (Invitrogen) in 1×TBE buffer at room temperature for 20 min covered from light. The gel fluorescence was imaged on an Azure c600 instrument.

[1] = cited from earlier work
Aptamer 21-E = assay: SEC/LCMS binding to Aptamer 21-E
Description: (§1) The RNA concentration was 1 μM and the ligand concentration ranged from 0.1 to 10 μM in an appropriate buffer (TRIS-HCl 20 mM pH 8.0, MgCl2 3 mM, KCl 100 mM).
(§2) The RNA/ligand mixtures were incubated at room temperature for 20 minutes in a 96-well plate format, then this plate was loaded into an autosampler linked to the chromatography system fitted with a reusable SEC column for rapid separation of target/ligand complexes from unbound components. RNA/ligand complexes in SEC eluent were monitored by UV detection, and an automated valving system directed the RNA peak to a reverse phase chromatography column for dissociation, desalting, and elution of any ligands into an ESI-MS system for identification.
(§3) All liquid chromatographic components were HP1200 modules. The mass spectrometer was the Waters LCT premier instrument operated in positive electrospray (ES+) TOF-MS mode. The mass range acquired was 80-1000 m/z in 0.25 s. The SEC column was 50×4.6 mm polyhydroxyethyl column. The SEC mobile phase was 50 mM phosphate buffer with 200 mM NaCl, pH=7.0. The LC column was a 2.1×50 mm C18 Phenomenex column. The gradient LC mobile phase A was 0.1% formic acid in water and B was acetonitrile/water with 0.1% formic acid. The run time was 7.9 min.
The start of saturation was between 1 and 3 μM.

Aptamer 21 RNA = assay: Online SEC-LCMS binding to Aptamer 21 RNA; conditions: for % of binding: RNA 1 uM
Description: Online SEC-LCMS has been used to study the binding to Aptamer 21 RNA against I-1 (ARK-139).
as §1, §2, §3
Binding of I-1 to Aptamer 21 was measured. SEC/LCMS conditions for this experiment were: [I-1]=5 uM, [RNA]=1 uM, Buffer=Tris-HCl 20 mM, KCl 100 mM, 3 mM MgCl2.

COC(=O)C1=C(COCc2cn(CCOCCOCCO)nn2)NC(c2ccncc2)=NC1c1ccc(F)cc1Cl (racemic) [I-1]
inhibition of photocrosslinking of ARK-581 to Aptamer 21 (Aptamer 21; 10-fold excess of RNA-binding ligand over probe): efficiently inhibited | inhibition of photocrosslinking of probes to Aptamer 21 (RT pausing competition assay) (Aptamer 21; FIG. 65): inhibit | water solubility [1]: water-soluble | binding to Aptamer 21-E by SEC/LCMS (Aptamer 21-E): does not bind | % of binding (Aptamer 21 RNA; ARK-000139 conc 0.1 μM): 72.5% | % of binding (Aptamer 21 RNA; ARK-000139 conc 0.5 μM): 36.5% | % of binding (Aptamer 21 RNA; ARK-000139 conc 1 μM): 33.6% | % of binding (Aptamer 21 RNA; ARK-000139 conc 3 μM): 22.4% | % of binding (Aptamer 21 RNA; ARK-000139 conc 10 μM): 8.9% | binding to Aptamer 21 by SEC-MS (Aptamer 21 RNA; data not shown): confirmed
